This is an account of results in patent US20220363665A1, “QUINOLINE COMPOUNDS FOR THE TREATMENT OF AUTOIMMUNE DISEASE” (Hoffmann-La Roche Inc., priority 2019, published 2022).

Common to all, as to assay type: in vitro ADME
Data set [1] addresses T1, CYP2C9 (Homo sapiens, UniProt P11712).
T1 construct: tissue BD-Gentest 452117; host or cells: human liver microsomes
The experiment in a line: CYP inhibition assay in human liver microsome, CYP2C9. Particulars: HLM, diclofenac substrate; for inhibition at 5 min, 10 µM: human, liver microsomes, probe diclofenac, read-out: CYP inhibition % @10 uM (2C9). The procedure: (§1) This is a high throughput screening assay used for assessment of reversible inhibition of CYP2C9, CYP2D6, and CYP3A4 activity of test compounds in human liver microsome (HLM) in early discovery stage.
(§2) 10 mM DMSO stock solutions of test compounds were diluted in DMSO to generate 2 mM intermediate stock solution. 250 nL of intermediate stock solution were transferred in duplicate into 3 separate 384 well microtitre plates (assay-ready plates). A mixture of HLM and each substrate was made up. 45 μL of HLM substrate mix was then transferred to each well of an assay ready plate and mixed. The negative (solvent) and positive controls (standard inhibitor for each CYP) were included in each assay ready plate. The assay ready plate was warmed to 37° C. in an incubator over 10 minutes. 5 μL pre-warmed NADPH regenerating system was added to each incubation well to start the reaction. Final incubation volume was 50 μL. The assay plate then was placed back in the 37° C. incubator. After 5 minutes incubation (10 minutes for CYP2D6), incubates were quenched by addition of 50 μL quench reagent containing internal standards (400 ng/mL 13C6-4′-OH-Diclofenac, 20 ng/mL D3-Dextrorphan and 20 ng/mL D4-1′OH-Midazolam in acetonitrile). The supernatants were collected for RapidFire/MS/MS analysis.
(§3) RapidFire online solid phase extraction/sample injection system (Agilent) coupled with API4000 triple quadrupole mass spectrometer (AB Sciex) were used for sample analysis. The mobile phase composed of acetonitrile and water supplemented with 0.1% formic acid. A C4 solid phase extraction cartridge is used for sample separation. MS detection is achieved in positive ion MRM mode.
(§4) Peak areas for substrate, metabolite and internal standard are determined using the
(§5) RapidFire integrator software (version 3.6.12009.12296). Peak area ratios (PAR) of metabolite and internal standard (stable-labelled metabolite) are then calculated. The measurement window for each experiment is then defined:
(§6) PAR (0% activity)=average PAR for all incubations containing concentrated inhibitor;
(§7) Par (100% activity)=average PAR for all incubations containing no inhibitor (DMSO controls);
(§8) % Activity (test inhibitor) =[PAR(test inhibitor)-PAR(0% activity)][PAR(100% activity)-PAR(0% activity)];
(§9) % Inhibition (test inhibitor)=100-% Activity (test inhibitor).
(§10) Percentage inhibition data are then reported, in duplicate, for the 3 CYP enzymes.
(In general: Liver microsomes are vesicles of endoplasmic reticulum, rich in cytochrome P450 enzymes.)

In data set [2] the target is T2, CYP2D6 (Homo sapiens, UniProt P10635).
T2 construct: tissue BD-Gentest 452117; host or cells: human liver microsomes
T2 sequence (P10635 whole entry): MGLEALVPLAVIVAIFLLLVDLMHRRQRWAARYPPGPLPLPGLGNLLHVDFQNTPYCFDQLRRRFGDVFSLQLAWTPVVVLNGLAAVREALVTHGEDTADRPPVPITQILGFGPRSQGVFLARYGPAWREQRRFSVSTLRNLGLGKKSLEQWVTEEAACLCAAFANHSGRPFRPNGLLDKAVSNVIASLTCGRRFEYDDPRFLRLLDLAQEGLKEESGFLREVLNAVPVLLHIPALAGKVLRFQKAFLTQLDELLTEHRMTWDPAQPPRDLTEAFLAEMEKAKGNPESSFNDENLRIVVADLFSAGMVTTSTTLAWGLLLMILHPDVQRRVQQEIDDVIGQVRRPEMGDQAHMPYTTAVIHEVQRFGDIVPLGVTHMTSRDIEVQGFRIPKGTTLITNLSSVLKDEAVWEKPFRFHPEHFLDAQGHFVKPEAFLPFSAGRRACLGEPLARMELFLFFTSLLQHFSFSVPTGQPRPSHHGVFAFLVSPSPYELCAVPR
As to the kind of experiment: CYP inhibition assay in human liver microsome, CYP2D6. Conditions: HLM, dextromethorphan substrate; for inhibition at 10 min, 10 µM: human, liver microsomes, probe dextromethorphan, read-out: CYP inhibition % @10 uM (2D6). How it is done: as §1, §2, §3, §4, §5, §6, §7, §8, §9, §10

For data set [3], the target named is T3, CYP3A4 (Homo sapiens, UniProt P08684).
T3 construct: tissue BD-Gentest 452117; host or cells: human liver microsomes
T3 sequence (P08684 whole entry): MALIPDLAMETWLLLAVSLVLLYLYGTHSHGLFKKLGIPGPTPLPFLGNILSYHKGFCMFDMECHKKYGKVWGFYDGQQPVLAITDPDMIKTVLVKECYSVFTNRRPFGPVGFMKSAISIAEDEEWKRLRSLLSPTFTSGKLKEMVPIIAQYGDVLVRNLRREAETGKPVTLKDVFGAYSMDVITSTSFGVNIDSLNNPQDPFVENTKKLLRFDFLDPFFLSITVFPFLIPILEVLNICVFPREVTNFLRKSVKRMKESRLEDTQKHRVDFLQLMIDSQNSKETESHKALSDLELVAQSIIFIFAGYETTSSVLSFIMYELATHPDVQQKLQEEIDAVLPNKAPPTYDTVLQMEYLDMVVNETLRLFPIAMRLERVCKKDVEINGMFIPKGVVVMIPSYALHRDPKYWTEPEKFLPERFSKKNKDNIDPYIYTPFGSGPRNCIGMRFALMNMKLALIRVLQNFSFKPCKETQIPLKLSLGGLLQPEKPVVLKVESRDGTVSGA
The experiment in a line: CYP inhibition assay in human liver microsome, CYP3A4. Particulars: HLM, midazolam substrate; for inhibition at 5 min, 10 µM: human, liver microsomes, probe midazolam, read-out: CYP inhibition % @10 uM (3A4). The procedure: as §1, §2, §3, §4, §5, §6, §7, §8, §9, §10

The structures appear in SMILES notation.

T1 sequence (P11712 whole entry): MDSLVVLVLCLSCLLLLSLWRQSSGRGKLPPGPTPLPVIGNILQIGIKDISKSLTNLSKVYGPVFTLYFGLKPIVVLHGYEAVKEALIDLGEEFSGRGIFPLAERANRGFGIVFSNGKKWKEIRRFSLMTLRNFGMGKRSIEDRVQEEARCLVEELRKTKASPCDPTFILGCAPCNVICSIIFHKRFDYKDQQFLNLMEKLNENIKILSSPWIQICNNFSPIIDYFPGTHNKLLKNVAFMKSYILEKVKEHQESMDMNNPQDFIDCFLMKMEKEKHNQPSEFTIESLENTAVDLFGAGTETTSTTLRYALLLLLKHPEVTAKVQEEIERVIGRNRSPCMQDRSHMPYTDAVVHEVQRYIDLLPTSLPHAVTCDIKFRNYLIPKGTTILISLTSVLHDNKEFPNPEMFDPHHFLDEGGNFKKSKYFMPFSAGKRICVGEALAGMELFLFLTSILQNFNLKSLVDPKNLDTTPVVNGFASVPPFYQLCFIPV

For `C[C@@H]1CN(c2ccc(C(F)(F)F)c3ncccc23)C[C@H](C(=O)NC2CCN(C)CC2)O1` [Example 5, (2R,6R)-6-methyl-N-(1-methyl-4-piperidyl)-4-[8-(trifluoromethyl)-5-quinolyl]morpholine-2-carboxamide], the inhibition at 5 min, 10 µM in data set [1] was -1%; in data set [3] it was -13%. The inhibition at 10 min, 10 µM in data set [2] is 16%.
Regarding `C[C@@H]1CN(c2ccc(C(F)(F)F)c3ncccc23)C[C@H](C(=O)NC2CCCNCC2)O1` (stereo partly drawn) [Example 8, (2R,6R)-N-(azepan-4-yl)-6-methyl-4-[8-(trifluoromethyl)-5-quinolyl]morpholine-2-carboxamide], the values for the inhibition at 5 min, 10 µM in data set [1] and in data set [3] were -8% and -34%, respectively. Also, in data set [2], the inhibition at 10 min, 10 µM amounted to 10%.
As for `C[C@@H]1CN(c2ccc(Cl)c3ncccc23)C[C@H](C(=O)NC2CCCNCC2)O1` (stereo partly drawn) [Example 25, (2R,6R)-N-(azepan-4-yl)-4-(8-chloro-5-quinolyl)-6-methyl-morpholine-2-carboxamide], the inhibition at 5 min, 10 µM in data set [1] was determined as 26%; in data set [3] it was 2%. Further, the inhibition at 10 min, 10 µM in data set [2] was 0%.
On to `C[C@@H]1CN(c2ccc(C(F)(F)F)c3ncccc23)C[C@H](C(=O)NC[C@@H]2CC(F)(F)CN2)O1` [Example 30], for which the inhibition at 5 min, 10 µM in data set [1] and in data set [3] was 20% each time. Also, in data set [2], the inhibition at 10 min, 10 µM was 20%.
For the compound `C[C@@H]1CN(c2ccc(C(F)(F)F)c3ncccc23)C[C@H](C(=O)N[C@@H]2CNC[C@@H]2F)O1` (single isomer, unassigned) [Example 2A], the inhibition at 5 min, 10 µM was 26% in data set [1] and 5% in data set [3]. Moreover, in data set [2], the inhibition at 10 min, 10 µM is 9%.
In the case of `C[C@@H]1CN(c2ccc(C(F)(F)F)c3ncccc23)C[C@H](C(=O)NC2CNCC(F)(F)C2)O1` (stereo partly drawn) [Example 28, (2R,6R)-N-(5,5-difluoro-3-piperidyl)-6-methyl-4-[8-(trifluoromethyl)-5-quinolyl]morpholine-2-carboxamide], the inhibition at 5 min, 10 µM was 23% in data set [1] and -30% in data set [3]. For the same compound, in data set [2], the inhibition at 10 min, 10 µM was found to be 2%.
On the same counts, the results for `C[C@@H]1CN(c2ccc(C(F)(F)F)c3ncccc23)C[C@H](C(=O)NCCN2CCOCC2)O1` [Example 13, (2R,6R)-6-methyl-N-(2-morpholinoethyl)-4-[8-(trifluoromethyl)-5-quinolyl]morpholine-2-carboxamide] are 1%, -22% and 0%.
`C[C@@H]1CN(c2ccc(C(F)(F)F)c3ncccc23)C[C@H](C(=O)NCC(C)(C)N)O1` [Example 6, (2R,6R)-N-(2-amino-2-methyl-propyl)-6-methyl-4-[8-(trifluoromethyl)-5-quinolyl]morpholine-2-carboxamide]: the inhibition at 5 min, 10 µM in data set [1] was -13%; in data set [3] it was -10%. For the same compound, the inhibition at 10 min, 10 µM in data set [2] was 13%.
On the same counts, the results for `C[C@@H]1CN(c2ccc([N+](=O)[O-])c3ncccc23)C[C@H](C(=O)NC2CCN(C)CC2)O1` [Example 20, (2R,6R)-6-methyl-N-(1-methyl-4-piperidyl)-4-(8-nitro-5-quinolyl)morpholine-2-carboxamide] are -6%, 6% and -12%.
Taken in the same sequence, the figures for `C[C@@H]1CN(c2ccc(Cl)c3ncccc23)C[C@H](C(=O)NCC2CN(C)CCO2)O1` (stereo partly drawn) [Example 26, (2R,6R)-4-(8-chloro-5-quinolyl)-6-methyl-N-[(4-methylmorpholin-2-yl)methyl]morpholine-2-carboxamide] were -13%, -5% and 3%.
On the same counts, the results for `C[C@@H]1CN(c2ccc(C(F)(F)F)c3ncccc23)C[C@H](C(=O)NC2CNCCOC2)O1` (stereo partly drawn) [Example 14, (2R,6R)-6-methyl-N-(1,4-oxazepan-6-yl)-4-[8-(trifluoromethyl)-5-quinolyl]morpholine-2-carboxamide] are -2%, -24% and -1%.
For `C[C@@H]1CN(c2ccc(C(F)(F)F)c3ncccc23)C[C@H](C(=O)NC2C3CCC2CNC3)O1` (stereo partly drawn) [Example 31, (2R,6R)-N-(3-azabicyclo[3.2.1]octan-8-yl)-6-methyl-4-[8-(trifluoromethyl)-5-quinolyl]morpholine-2-carboxamide], the inhibition at 5 min, 10 µM in data set [1] was -1%; in data set [3], -29%. For the same compound, in data set [2], the inhibition at 10 min, 10 µM was 2%.
On the same counts, the results for `C[C@@H]1CN(c2ccc(I)c3ncccc23)C[C@H](C(=O)NCC2CN(C)CCO2)O1` (stereo partly drawn) [Example 39, (2R,6R)-4-(8-iodo-5-quinolyl)-6-methyl-N-[(4-methylmorpholin-2-yl)methyl]morpholine-2-carboxamide] are -7%, 5% and 5%.
In the case of `Cc1ccc(N2C[C@@H](C)O[C@@H](C(=O)NCC3CN(C)CCO3)C2)c2cccnc12` (stereo partly drawn) [Example 17, (2R,6R)-6-methyl-N-[(4-methylmorpholin-2-yl)methyl]-4-(8-methyl-5-quinolyl)morpholine-2-carboxamide], the inhibition at 5 min, 10 µM in data set [1] is -4%; in data set [3], -5%. In addition, the inhibition at 10 min, 10 µM in data set [2] was determined as 3%.
Turning to `C[C@@H]1CN(c2ccc(C(F)(F)F)c3ncccc23)C[C@H](C(=O)NC2CC3CNCC32)O1` (single isomer, unassigned) [Example 49A], the “CYP inhibition % @10 uM (2C9)” value in data set [1] (10 µM) is −1%. Moreover, in data set [2] (10 µM), the “CYP inhibition % @10 uM (2D6)” value was determined as 2%. Besides, the “CYP inhibition % @10 uM (3A4)” value in data set [3] (10 µM) was −25%.

The term inhibition denotes the change of the read-out against control, counted positive when it falls.
